Assay results: PubChem BioAssay (NCI)
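Test compounds were applied to cells in 96-well plates for 48 hours at 5 doses. TGI is the concentration that stops growth completely.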

Tests used:
Assay in all cases: NCI-60 cell line screen, 48 h
[1] = tested on: A498 renal
[2] = tested on: ACHN renal
[3] = tested on: CAKI-1 renal
[4] = tested on: HOP-92 NSCLC
[5] = tested on: IGROV1 ovarian
[6] = tested on: MDA-N
[7] = tested on: NCI/ADR-RES ovarian
[8] = tested on: SF-295 CNS
[9] = tested on: SK-MEL-5 melanoma
[10] = tested on: SW-620 colon

Compound: O=C(OCc1c(-c2ccccc2)nn(-c2ccccc2)c1COC(=O)Oc1ccccc1)Oc1ccccc1
- TGI [1]: > 100 µM
- TGI [2]: > 100 µM
- TGI [3]: > 100 µM
- TGI [4]: > 100 µM
- TGI [5]: > 100 µM
- TGI [6]: > 100 µM
- TGI [7]: > 100 µM
- TGI [8]: > 100 µM
- TGI [9]: > 100 µM
- TGI [10]: > 100 µM

Compound: Nc1nc(SCc2ccccc2[N+](=O)[O-])c2[nH]cnc2n1
- TGI [1]: 48.3 µM
- TGI [2]: > 100 µM
- TGI [3]: > 100 µM
- TGI [4]: 9.06 µM
- TGI [5]: > 68.4 µM
- TGI [6]: > 100 µM
- TGI [7]: > 100 µM
- TGI [8]: > 100 µM
- TGI [9]: 49.1 µM
- TGI [10]: > 100 µM

Compound: O=S(=O)(Nc1nc(-c2cc(O)c(O)c(O)c2)cs1)c1ccc(Cl)cc1Cl
- TGI [1]: > 100 µM
- TGI [2]: 28.1 µM
- TGI [3]: 35.5 µM
- TGI [4]: > 100 µM
- TGI [5]: 45.9 µM
- TGI [6]: 73.9 µM
- TGI [7]: 69 µM
- TGI [8]: 34.4 µM
- TGI [9]: 34.2 µM
- TGI [10]: 37.5 µM

Compound: Cn1c2cc(Cl)ccc2c2ccc3c(c21)C(=O)C=CC3=O
- TGI [1]: > 100 µM
- TGI [2]: 40.9 µM
- TGI [3]: 22.1 µM
- TGI [4]: 35.8 µM
- TGI [5]: > 63.1 µM
- TGI [6]: 83.1 µM
- TGI [7]: > 89.7 µM
- TGI [8]: > 100 µM
- TGI [9]: > 100 µM
- TGI [10]: 17.9 µM

Compound: CNC(=O)C(NC(=O)[C@H](CC(C)C)NC(=O)[C@@H](S)CCN1C(=O)N(C)C(C)(C)C1=O)C(C)(C)C (stereo not given in full)
- TGI [1]: > 100 µM
- TGI [2]: > 100 µM
- TGI [3]: > 100 µM
- TGI [4]: > 100 µM
- TGI [5]: > 100 µM
- TGI [6]: > 100 µM
- TGI [7]: > 100 µM
- TGI [8]: > 100 µM
- TGI [9]: > 100 µM
- TGI [10]: > 100 µM

Compound: CN1CCN(c2ccc3nc(-c4ccc5nc(-c6ccc(N(C)CCCl)cc6)[nH]c5c4)[nH]c3c2)CC1
- TGI [1]: 6.74 µM
- TGI [2]: 5.97 µM
- TGI [3]: 17.1 µM
- TGI [4]: 0.989 µM
- TGI [5]: 0.391 µM
- TGI [6]: 0.511 µM
- TGI [7]: > 100 µM
- TGI [8]: 11.2 µM
- TGI [9]: 0.517 µM
- TGI [10]: 1.22 µM

Compound: C/C(=N\Nc1ncnc2ccccc12)c1ccccn1
- TGI [1]: 16.4 µM
- TGI [2]: 8.46 µM
- TGI [3]: 1.67 µM
- TGI [4]: 7.75 µM
- TGI [5]: 2.84 µM
- TGI [6]: 27.5 µM
- TGI [7]: 0.551 µM
- TGI [8]: 17.9 µM
- TGI [9]: 13.2 µM
- TGI [10]: 45.6 µM

Compound: N#CCCCCC12C3C(=O)N(c4ccccc4)C(=O)C3ON1O[C@@H]1C(=O)N(c3ccccc3)C(=O)[C@@H]12 (stereo not given in full)
- TGI [1]: > 100 µM
- TGI [2]: > 100 µM
- TGI [3]: > 100 µM
- TGI [4]: > 100 µM
- TGI [5]: > 100 µM
- TGI [6]: > 100 µM
- TGI [7]: > 100 µM
- TGI [8]: > 100 µM
- TGI [9]: > 100 µM
- TGI [10]: > 100 µM
